From patent US7772241B2, “Variolin derivatives and their use as antitumor agents” (Pharma Mar S.A., priority 2001, dated 2010)
Like-named read-outs stand apart in the source and are kept apart here.

What was measured:
[1] = tested on: HeLa-APL; experiment: Inhibition of cells growth by colorimetric (SRB) assay, HeLa-APL; conditions: for GI50 / CC50: Homo sapiens, 48 h; for GI50: read-out: HELA-APL GI50, SRB assay, 48 hours exposure; for CC50: read-out: HELA-APL LC50, SRB assay, 48 hours exposure; for HELA-APL TGI: SRB assay, 48 hours exposure
Summary of the method: (§1)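 Read-out is sulforhodamine B protein stain (OD 490 nm) after cold TCA fixation, following 48 h continuous exposure to samples spanning 10 to 10^−8 μg/ml.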

[2] = tested on: DU-145; experiment: Inhibition of cells growth by colorimetric (SRB) assay, DU-145; conditions: for GI50 / CC50: Homo sapiens, DU-145, 48 h; for GI50: read-out: DU-145 GI50, SRB assay, 48 hours exposure; for CC50: read-out: DU-145 LC50, SRB assay, 48 hours exposure; for DU-145 TGI: SRB assay, 48 hours exposure
Summary of the method: as §1

[3] = tested on: LNCaP; experiment: Inhibition of cells growth by colorimetric (SRB) assay, LNCaP; conditions: for GI50 / CC50: Homo sapiens, LNCaP, 48 h; for GI50: read-out: LN-caP GI50, SRB assay, 48 hours exposure; for CC50: read-out: LN-caP LC50, SRB assay, 48 hours exposure; for LN-caP TGI: SRB assay, 48 hours exposure
Summary of the method: as §1

[4] = tested on: IGROV-1; experiment: Inhibition of cells growth by colorimetric (SRB) assay, IGROV-1; conditions: for GI50 / CC50: Homo sapiens, IGROV-1, 48 h; for GI50: read-out: IGROV GI50, SRB assay, 48 hours exposure; for CC50: read-out: IGROV LC50, SRB assay, 48 hours exposure; for IGROV TGI: SRB assay, 48 hours exposure
Summary of the method: as §1

[5] = tested on: SK-MEL-28; experiment: Inhibition of cells growth by colorimetric (SRB) assay, SK-MEL-28; conditions: for GI50 / CC50: Homo sapiens, SK-MEL-28, 48 h; for GI50: read-out: MEL-28 GI50, SRB assay, 48 hours exposure; for CC50: read-out: MEL-28 LC50, SRB assay, 48 hours exposure; for MEL-28 TGI: SRB assay, 48 hours exposure
Summary of the method: as §1

[6] = tested on: SK-BR-3; experiment: Inhibition of cells growth by colorimetric (SRB) assay, SK-BR-3; conditions: for GI50 / CC50: Homo sapiens, SK-BR-3, 48 h; for GI50: read-out: SK-BR-3 GI50, SRB assay, 48 hours exposure; for CC50: read-out: SK-BR-3 LC50, SRB assay, 48 hours exposure; for SK-BR-3 TGI: SRB assay, 48 hours exposure
Summary of the method: as §1

[7] = tested on: LoVo-Dox; experiment: Inhibition of cells growth by colorimetric (SRB) assay, LoVo-Dox; conditions: for GI50 / CC50: Homo sapiens, 48 h; for GI50: read-out: LOVO-DOX GI50, SRB assay, 48 hours exposure; for CC50: read-out: LOVO-DOX LC50, SRB assay, 48 hours exposure; for LOVO-DOX TGI: SRB assay, 48 hours exposure
Summary of the method: as §1

[8] = tested on: LoVo; experiment: Inhibition of cells growth by colorimetric (SRB) assay, LoVo; conditions: for GI50 / CC50: Homo sapiens, LoVo, 48 h; for GI50: read-out: LOVO GI50, SRB assay, 48 hours exposure; for CC50: read-out: LOVO LC50, SRB assay, 48 hours exposure; for LOVO TGI: SRB assay, 48 hours exposure
Summary of the method: as §1

[9] = tested on: HT-29; experiment: Inhibition of cells growth by colorimetric (SRB) assay, HT-29; conditions: for GI50 / CC50: Homo sapiens, HT-29, 48 h; for HT-29 TGI / TGI HT-29: SRB assay, 48 hours exposure
Summary of the method: as §1

[10] = tested on: PANC-1; experiment: Inhibition of cells growth by colorimetric (SRB) assay, PANC-1; conditions: for GI50 / CC50: Homo sapiens, PANC-1, 48 h; for GI50: read-out: PANC-1 GI50, SRB assay, 48 hours exposure; for CC50: read-out: PANC-1 LC50, SRB assay, 48 hours exposure; for PANC-1 TGI: SRB assay, 48 hours exposure
Summary of the method: as §1

[11] = tested on: HeLa; experiment: Inhibition of cells growth by colorimetric (SRB) assay, HeLa; conditions: for GI50: Homo sapiens, HeLa, 48 h, read-out: HELA GI50, SRB assay, 48 hours exposure; for HELA TGI: SRB assay, 48 hours exposure; as to HELA TGI: unit not given here
Summary of the method: as §1

[12] = tested on: IGROV-ET; experiment: Inhibition of cells growth by colorimetric (SRB) assay, IGROV-ET; conditions: for GI50 / CC50: Homo sapiens, 48 h; for GI50: read-out: IGROV-ET GI50, SRB assay, 48 hours exposure; for CC50: read-out: IGROV-ET LC50, SRB assay, 48 hours exposure; for IGROV-ET TGI: SRB assay, 48 hours exposure
Summary of the method: as §1

[13] = tested on: A-549; experiment: Inhibition of cells growth by colorimetric (SRB) assay, A-549; conditions: for GI50 / CC50: Homo sapiens, A549, 48 h; for A-549 TGI / TGI A-549: SRB assay, 48 hours exposure
Summary of the method: as §1

[14] = tested on: K-562; experiment: Inhibition of cells growth by colorimetric (SRB) assay, K-562; conditions: for GI50 / CC50: Homo sapiens, K562, 48 h; for GI50: read-out: K-562 GI50, SRB assay, 48 hours exposure; for CC50: read-out: K-562 LC50, SRB assay, 48 hours exposure; for K-562 TGI: SRB assay, 48 hours exposure
Summary of the method: as §1

[15] = read-out: GI50 HT-29, SRB assay, 48 hours exposure
[16] = read-out: HT-29 GI50, SRB assay, 48 hours exposure
[17] = read-out: HT-29 LC50, SRB assay, 48 hours exposure
[18] = read-out: LC50 HT-29, SRB assay, 48 hours exposure
[19] = read-out: A-549 GI50, SRB assay, 48 hours exposure
[20] = read-out: A-549 LC50, SRB assay, 48 hours exposure
[21] = read-out: GI50 A-549, SRB assay, 48 hours exposure
[22] = read-out: LC50 A-549, SRB assay, 48 hours exposure

## CSc1nccc(-c2c3cccnc3n3c(NC(C)=O)nccc23)n1 [Compound 69]
[1]
  GI50: 0.00594 µM
  CC50: 0.38 µM
  HELA-APL TGI: 2.45E−08
[2]
  GI50: 0.985 µM
  CC50: 23.7 µM
  DU-145 TGI: 4.59E−06
[3]
  GI50: 1.08 µM
  CC50: 28.5 µM
  LN-caP TGI: 4.77E−06
[4]
  GI50: 2.13 µM
  CC50: 28.5 µM
  IGROV TGI: 8.53E−06
[5]
  GI50: 2.19 µM
  CC50: 16.4 µM
  MEL-28 TGI: 6.51E−06
[6]
  GI50: 1.23 µM
  CC50: 24.8 µM
  SK-BR-3 TGI: 6.25E−06
[7]
  GI50: 2.04 µM
  CC50: 28.5 µM
  LOVO-DOX TGI: 9.79E−06
[8]
  GI50: 1.22 µM
  CC50: 28.5 µM
  LOVO TGI: 7.28E−06
[9]; [15]
  GI50: 14.3 µM
[9]; [16]
  GI50: 0.887 µM
[9]; [17]
  CC50: 28.5 µM
[9]; [18]
  CC50: 28.6 µM
[9]
  HT-29 TGI: 6.51E−06
  TGI HT-29: 2.86E−05
[10]
  GI50: 4.99 µM
  CC50: 28.5 µM
  PANC-1 TGI: 1.91E−05
[11]
  GI50: 0.00716 µM
  HELA TGI: 3.60E−08
[12]
  GI50: 7.31 µM
  CC50: 28.5 µM
  IGROV-ET TGI: 2.18E−05
[13]; [19]
  GI50: 0.517 µM
[13]; [20]
  CC50: 2.75 µM
[13]; [21]
  GI50: 5.71 µM
[13]; [22]
  CC50: 28.6 µM
[13]
  A-549 TGI: 1.19E−06
  TGI A-549: 2.29E−05
[14]
  GI50: 12.8 µM
  CC50: 28.5 µM
  K-562 TGI: 2.85E−05

## CS(=O)(=O)c1nccc(-c2c3cccnc3n3c(N)nccc23)n1 [Compound 73]
[1]
  GI50: 0.013 µM
  CC50: 7.23 µM
  HELA-APL TGI: 7.23E−08
[2]
  GI50: 29.4 µM
  CC50: 29.4 µM
  DU-145 TGI: 2.94E−05
[3]
  GI50: 4.76 µM
  CC50: 29.4 µM
  LN-caP TGI: 1.51E−05
[4]
  GI50: 5.41 µM
  CC50: 29.4 µM
  IGROV TGI: 2.94E−05
[5]
  GI50: 5.46 µM
  CC50: 29.4 µM
  MEL-28 TGI: 2.94E−05
[6]
  GI50: 2.08 µM
  CC50: 29.4 µM
  SK-BR-3 TGI: 9.37E−06
[7]
  GI50: 10.1 µM
  CC50: 29.4 µM
  LOVO-DOX TGI: 2.94E−05
[8]
  GI50: 14.4 µM
  CC50: 29.4 µM
  LOVO TGI: 2.94E−05
[9]; [15]
  GI50: ≥ 29.4 µM
[9]; [16]
  GI50: 14.6 µM
[9]; [17]
  CC50: 29.4 µM
[9]; [18]
  CC50: ≥ 147 µM
[9]
  HT-29 TGI: 2.94E−05
  TGI HT-29: 1.47E−04
[10]
  GI50: 12.3 µM
  CC50: 29.4 µM
  PANC-1 TGI: 2.94E−05
[11]
  GI50: 0.00896 µM
  HELA TGI: 3.58E−08
[12]
  GI50: 2.05 µM
  CC50: 29.4 µM
  IGROV-ET TGI: 2.94E−05
[13]; [19]
  GI50: 11.3 µM
[13]; [20]
  CC50: 29.4 µM
[13]; [21]
  GI50: 4.41 µM
[13]; [22]
  CC50: ≥ 147 µM
[13]
  A-549 TGI: 2.94E−05
  TGI A-549: 1.47E−04
[14]
  GI50: 13.7 µM
  CC50: 29.4 µM
  K-562 TGI: 2.94E−05
